In patent US20210188775A1, “CARBOXAMIDE AND SULFONAMIDE DERIVATIVES USEFUL AS TEAD MODULATORS” (Genentech, Inc., priority 2018, published 2021) one finds IC50 data, which are given here for 26 compounds.

In general, IC50 refers to the concentration at which inhibition is half-maximal. Read a high IC50 as lower potency.

The structures appear in SMILES notation.

For test [1], the target named is TEAD2 (Homo sapiens, UniProt Q15562). Put plainly: TEAD lipid assay (Lipid FP, Bodipy-C16 probe displacement). To be noted: fluorescence polarization, His-tagged TEAD, 60 minutes incubation. The format is binding. As for the experimental part:
(§1) A TEAD lipid assay was done according to the following method. His-tagged TEAD proteins were pre-incubated with a Bodipy-C16 FP probe (Life Technologies Cat #D3821) for 30 minutes at room temperature to pre-form TEAD-probe complex. […] Duplicate 10 point dose response curves were generated for each test compound. The potency of compounds as TEAD lipid pocket binders was determined by IC50 value generated using a non-linear 4 parameter curve fit.

The target in test [2] is TEAD3 (Homo sapiens, UniProt Q99594). The test is described as above. The class given is binding. To be noted: fluorescence polarization, His-tagged TEAD, 60 minutes incubation. As for the experimental part:
as §1

Sequence of TEAD3 (Q99594 whole entry, species assumed): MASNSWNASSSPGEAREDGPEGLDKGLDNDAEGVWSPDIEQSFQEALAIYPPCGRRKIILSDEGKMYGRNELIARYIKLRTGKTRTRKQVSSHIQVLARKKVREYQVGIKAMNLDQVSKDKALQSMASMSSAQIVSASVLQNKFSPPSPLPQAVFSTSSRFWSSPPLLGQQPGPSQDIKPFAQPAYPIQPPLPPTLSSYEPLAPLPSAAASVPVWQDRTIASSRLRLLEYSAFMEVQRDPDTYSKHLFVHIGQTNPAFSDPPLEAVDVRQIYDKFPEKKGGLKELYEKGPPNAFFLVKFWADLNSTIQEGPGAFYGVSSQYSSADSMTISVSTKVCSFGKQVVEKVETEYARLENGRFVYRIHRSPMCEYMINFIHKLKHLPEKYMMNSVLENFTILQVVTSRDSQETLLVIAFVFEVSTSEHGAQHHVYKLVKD
Sequence of TEAD2 (Q15562 whole entry, species assumed): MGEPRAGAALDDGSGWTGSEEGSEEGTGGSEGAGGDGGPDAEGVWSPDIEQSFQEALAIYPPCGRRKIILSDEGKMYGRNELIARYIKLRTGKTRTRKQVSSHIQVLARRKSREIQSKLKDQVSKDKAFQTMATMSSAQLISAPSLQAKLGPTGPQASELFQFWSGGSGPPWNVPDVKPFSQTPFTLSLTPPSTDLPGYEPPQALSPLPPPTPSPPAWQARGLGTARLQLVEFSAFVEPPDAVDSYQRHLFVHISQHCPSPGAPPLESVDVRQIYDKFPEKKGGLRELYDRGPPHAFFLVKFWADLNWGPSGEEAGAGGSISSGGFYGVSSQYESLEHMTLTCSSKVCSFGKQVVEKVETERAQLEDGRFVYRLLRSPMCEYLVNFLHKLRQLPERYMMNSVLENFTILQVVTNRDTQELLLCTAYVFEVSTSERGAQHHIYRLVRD

Consider `COc1cc(F)c(NS(=O)(=O)C2CC2)cc1-c1ccc(C(C)C)cc1` [Compound 11, N-[2-fluoro-5-(4-isopropylphenyl)-4-methoxy-phenyl]cyclopropanesulfonamide], for which the IC50 in test [1] worked out at 560 nM; in test [2], 630 nM.

With `COc1ccc(NS(=O)(=O)C2CC2)cc1-c1ccc(C(C)C)cc1` [Compound 25, N-[3-(4-isopropylphenyl)-4-methoxy-phenyl]cyclopropanesulfonamide], the IC50 worked out at 380 nM in test [1] and 1200 nM in test [2].

Turning to `Cc1cn(Cc2ccc(Cl)cc2)c2cc(NS(=O)(=O)C3CC3)ccc12` [Compound 23, N-[1-[(4-chlorophenyl)methyl]-3-methyl-indol-6-yl]cyclopropanesulfonamide], the IC50 in test [1] was determined as 1200 nM; in test [2], 830 nM.

With `COc1ncc(NS(C)(=O)=O)cc1/C=C/C1CC(C)(C)C1` [Compound 36, N-[5-[(E)-2-(3,3-dimethylcyclobutyl)vinyl]-6-methoxy-3-pyridyl]methanesulfonamide], the IC50 in test [1] turned out to be 950 nM; in test [2] it was 1400 nM.

Consider `CC[C@H](CO)NC(=O)c1cc(/C=C/C2CC3(CC3)C2)c(OC)cn1` [Compound 44, (E)-N-(1-hydroxybutan-2-yl)-5-methoxy-4-(2-(spiro[2.3]hexan-5-yl)vinyl)picolinamide], for which the IC50 amounted to 830 nM in test [1] and 700 nM in test [2].

Consider `COc1nc(F)c(NS(C)(=O)=O)cc1/C=C/CC1CCCC1` [Compound 40, N-[5-[(E)-3-cyclopentylprop-1-enyl]-2-fluoro-6-methoxy-3-pyridyl]methanesulfonamide], for which the figures for the IC50 in test [1] and in test [2] were 640 nM and 650 nM, respectively.

Consider `COc1ccc(C(=O)NC(C)C)cc1/C=C/C1CCCCC1` [Compound 29], for which the IC50 in test [1] was determined as 1000 nM; in test [2], 1100 nM.

Consider `CC[C@H](CO)NC(=O)c1cc(/C=C/[C@H]2CC[C@H](C(F)(F)F)CC2)c(OC)cn1` [Compound 42, (E)-N-(1-hydroxybutan-2-yl)-5-methoxy-4-(2-(4-(trifluoromethyl)cyclohexyl)vinyl) picolinamide], for which the IC50 worked out at 530 nM in test [1] and 780 nM in test [2].

As to `COc1cnc(C(=O)NC[C@H](O)CO)cc1/C=C/C1CC2(CC2)C1` [Compound 43, (E)-N-(2,3-dihydroxypropyl)-5-methoxy-4-(2-(spiro[2.3]hexan-5-yl)vinyl)picolinamide], the IC50 was determined as 980 nM in test [1] and 1700 nM in test [2].

Regarding `COc1ncc(NS(C)(=O)=O)cc1/C=C/C1CC2(CC2)C1` [Compound 17, N-[6-methoxy-5-[(E)-2-spiro[2.3]hexan-5-ylvinyl]-3-pyridyl]methanesulfonamide], the half-inhibitory concentration (IC50) in test [1] stood at 810 nM; in test [2] it was 1800 nM.

Consider `COc1cnc(NS(C)(=O)=O)cc1/C=C/C1CCC(C(F)(F)F)CC1` (stereo not shown) [Compound 48, (E)-N-(5-methoxy-4-(2-(4-(trifluoromethyl)cyclohexyl)vinyl)pyridin-2-yl)methanesulfonamide], for which the IC50 turned out to be 1100 nM in test [1] and 1600 nM in test [2].

Take `Cc1cn(Cc2ccc(Cl)cc2)c2cc(NS(C)(=O)=O)ccc12` [Compound 22, N-[1-[(4-chlorophenyl)methyl]-3-methyl-indol-6-yl]methanesulfonamide]: the figures for the IC50 in test [1] and in test [2] were 930 nM and 1300 nM, respectively.

For the compound `COc1ncc(NS(=O)(=O)CC(C)(C)C#N)cc1/C=C/C1CCC(F)(F)CC1` [Compound 50, 2-cyano-N-[5-[(E)-2-(4,4-difluorocyclohexyl)vinyl]-6-methoxy-3-pyridyl]-2-methyl-propane-1-sulfonamide], the values for the IC50 in test [1] and in test [2] were 1300 nM and 1100 nM, respectively.

For `COc1cc(F)c(NS(=O)(=O)C2CC2)cc1/C=C/c1ccc(Cl)cc1` [Compound 10, N-[5-[(E)-2-(4-chlorophenyl)vinyl]-2-fluoro-4-methoxy-phenyl]cyclopropanesulfonamide], the IC50 in test [1] turned out to be 1100 nM; in test [2], 1900 nM.

With `COc1nc(F)c(NS(C)(=O)=O)cc1/C=C/C1CCCCC1` [Compound 38, N-[5-[(E)-2-cyclohexylvinyl]-2-fluoro-6-methoxy-3-pyridyl]methanesulfonamide], the IC50 in test [1] was determined as 1100 nM; in test [2], 2000 nM.

As to `COc1ccc(C(=O)NC(C)CCO)cc1/C=C/c1ccc(Cl)cc1` (single isomer, unassigned) [Compound 51, 3-[(E)-2-(4-chlorophenyl)vinyl]-N-(3-hydroxy-1-methyl-propyl)-4-methoxy-benzamide], the IC50 was 960 nM in test [1] and 2000 nM in test [2].

Consider `COc1ccc(C(N)=O)cc1/C=C/Cc1ccccc1` [Compound 32, 4-methoxy-3-[(E)-3-phenylprop-1-enyl]benzamide], for which the concentration for half-maximal inhibition (IC50) in test [1] stood at 610 nM; in test [2], 1400 nM.

Consider `COc1ccc(NS(C)(=O)=O)cc1/C=C/C1CCC(F)(F)CC1` [Compound 2, N-[3-[(E)-2-(4,4-difluorocyclohexyl)vinyl]-4-methoxy-phenyl]methanesulfonamide], for which the IC50 worked out at 1000 nM in test [1] and 1500 nM in test [2].

`COc1ccc(C(N)=O)cc1/C=C/C1CCCCC1` [Compound 31, 3-[(E)-2-cyclohexylvinyl]-4-methoxy-benzamide]: the values for the IC50 in test [1] and in test [2] were 780 nM and 970 nM, respectively.

As for `Cn1cc(Cc2ccc(Cl)cc2)c2cc(NS(C)(=O)=O)ccc21` [Compound 24, N-[3-[(4-chlorophenyl)methyl]-1-methyl-indol-5-yl]methanesulfonamide], the IC50 in test [1] worked out at 360 nM; in test [2], 780 nM.

As for `CC[C@H](CO)NC(=O)c1cc(/C=C/[C@H]2CC[C@H](C(F)(F)F)CC2)c(OC)nn1` [Compound 46, (E)-N-(1-hydroxybutan-2-yl)-6-methoxy-5-(2-(4-(trifluoromethyl)cyclohexyl)vinyl) pyridazine-3-carboxamide], the IC50 in test [1] and in test [2] was 1600 nM throughout.

Regarding `COc1ncc(NS(C)(=O)=O)cc1/C=C/C1CCC(F)(F)CC1` [Compound 14, N-[5-[(E)-2-(4,4-difluorocyclohexyl)vinyl]-6-methoxy-3-pyridyl]methanesulfonamide], the IC50 amounted to 380 nM in test [1] and 430 nM in test [2].

For the compound `COc1ccc(NS(C)(=O)=O)cc1/C=C/CC1CCCCC1` [Compound 4, N-[3-[(E)-3-cyclohexylprop-1-enyl]-4-methoxy-phenyl]methanesulfonamide], the figures for the IC50 in test [1] and in test [2] were 960 nM and 1300 nM, respectively.

Regarding `COc1ncc(NS(C)(=O)=O)cc1C1CC(c2ccc(Cl)cc2)C1` (stereo not shown) [Compound 13, N-[5-[3-(4-chlorophenyl)cyclobutyl]-6-methoxy-3-pyridyl]methanesulfonamide], the IC50 in test [1] is 730 nM; in test [2], 1800 nM.

In the case of `COc1cnc(NS(C)(=O)=O)cc1/C=C/C1(F)CCC(F)(F)CC1` [Compound 20, N-[5-methoxy-4-[(E)-2-(1,4,4-trifluorocyclohexyl)vinyl]-2-pyridyl]methanesulfonamide], the values for the IC50 in test [1] and in test [2] were 2000 nM and 760 nM, respectively.

As to `CC[C@H](CO)NC(=O)c1cc(/C=C/C2CCC(F)(F)CC2)c(OC)cn1` (racemic) [Compound 41, 5-methoxy-4-[rac-(E)-2-(4,4-difluorocyclohexyl)vinyl]-N-[rac-(1R)-1-(hydroxymethyl)propyl]pyridine-2-carboxamide], the IC50 in test [1] worked out at 1800 nM; in test [2] it was 1100 nM.
